{
  "source": "ChEMBL document CHEMBL1155237",
  "about": "“Selective inhibitors of the mutant B-Raf pathway: discovery of a potent and orally bioavailable aminoisoquinoline” (J Med Chem, 2009)",
  "key": {"[1]": {"molecular_target": "Tyrosine-protein kinase Lck (Homo sapiens, UniProt P06239)", "assay": "Inhibition of LCK"}, "[2]": {"test_system": "Mast/stem cell growth factor receptor Kit (Homo sapiens), P10721 [D816V]", "sequence (P10721 whole entry D816V)": "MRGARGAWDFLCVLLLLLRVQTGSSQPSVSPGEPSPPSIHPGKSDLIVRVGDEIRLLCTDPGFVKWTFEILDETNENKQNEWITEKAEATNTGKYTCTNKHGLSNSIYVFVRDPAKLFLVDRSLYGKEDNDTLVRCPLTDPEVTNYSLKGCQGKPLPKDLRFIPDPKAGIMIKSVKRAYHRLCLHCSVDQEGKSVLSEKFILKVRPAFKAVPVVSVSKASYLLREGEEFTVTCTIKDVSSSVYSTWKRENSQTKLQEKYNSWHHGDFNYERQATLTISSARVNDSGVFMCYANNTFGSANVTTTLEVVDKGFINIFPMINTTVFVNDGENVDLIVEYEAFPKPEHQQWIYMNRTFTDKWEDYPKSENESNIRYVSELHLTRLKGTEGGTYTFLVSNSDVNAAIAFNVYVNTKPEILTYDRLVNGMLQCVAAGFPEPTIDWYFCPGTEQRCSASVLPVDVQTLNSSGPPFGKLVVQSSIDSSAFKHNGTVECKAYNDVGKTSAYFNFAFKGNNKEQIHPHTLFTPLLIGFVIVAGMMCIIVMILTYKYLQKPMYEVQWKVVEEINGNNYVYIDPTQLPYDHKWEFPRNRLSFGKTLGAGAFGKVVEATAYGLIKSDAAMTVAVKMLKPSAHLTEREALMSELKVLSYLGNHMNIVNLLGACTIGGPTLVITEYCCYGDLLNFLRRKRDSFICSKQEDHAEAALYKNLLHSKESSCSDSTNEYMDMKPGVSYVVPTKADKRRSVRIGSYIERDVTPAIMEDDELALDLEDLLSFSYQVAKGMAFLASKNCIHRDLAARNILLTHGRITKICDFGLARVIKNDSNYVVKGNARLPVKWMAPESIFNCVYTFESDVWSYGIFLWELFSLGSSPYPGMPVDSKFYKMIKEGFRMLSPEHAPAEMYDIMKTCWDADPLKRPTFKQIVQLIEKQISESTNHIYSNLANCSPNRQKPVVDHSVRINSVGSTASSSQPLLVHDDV", "assay": "Inhibition of KIT D816V mutant assessed as enzyme activity at 1 uM relative to untreated control", "design": "scale not given: the % may be the effect or the level left"}, "[3]": {"test_system": "Mast/stem cell growth factor receptor Kit (Homo sapiens), P10721 [V559D]", "sequence (P10721 whole entry V559D)": "as the sequence (P10721 whole entry D816V) above, with V559D, V816D counted along it", "assay": "Inhibition of KIT V559D mutant assessed as enzyme activity at 1 uM relative to untreated control", "design": "scale not given: the % may be the effect or the level left"}, "[4]": {"molecular_target": "Serine/threonine-protein kinase STK11 (Homo sapiens) (UniProt Q15831)", "sequence (Q15831 whole entry)": "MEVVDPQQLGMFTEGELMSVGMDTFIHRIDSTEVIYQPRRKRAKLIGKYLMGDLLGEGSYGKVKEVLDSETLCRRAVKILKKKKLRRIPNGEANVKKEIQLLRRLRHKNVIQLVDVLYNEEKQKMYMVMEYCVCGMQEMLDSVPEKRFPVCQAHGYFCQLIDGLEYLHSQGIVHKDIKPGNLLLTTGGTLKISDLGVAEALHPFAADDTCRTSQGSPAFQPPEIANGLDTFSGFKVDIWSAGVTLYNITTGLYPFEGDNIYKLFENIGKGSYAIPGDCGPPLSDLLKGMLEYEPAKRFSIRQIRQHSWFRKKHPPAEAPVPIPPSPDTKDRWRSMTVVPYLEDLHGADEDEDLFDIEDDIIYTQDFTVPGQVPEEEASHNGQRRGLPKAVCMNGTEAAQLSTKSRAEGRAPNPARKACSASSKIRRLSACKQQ", "assay": "Inhibition of LKB1 assessed as enzyme activity at 1 uM relative to untreated control", "design": "scale not given: the % may be the effect or the level left"}, "[5]": {"molecular_target": "Mitogen-activated protein kinase kinase kinase kinase 1 (Homo sapiens) (UniProt Q92918)", "assay": "Inhibition of MAP4K1 assessed as enzyme activity at 1 uM relative to untreated control", "design": "scale not given: the % may be the effect or the level left"}, "[6]": {"molecular_target": "Cyclin-dependent kinase-like 2 (Homo sapiens) (UniProt Q92772)", "assay": "Inhibition of CDKL2 assessed as enzyme activity at 1 uM relative to untreated control", "design": "scale not given: the % may be the effect or the level left"}, "[7]": {"molecular_target": "Citron Rho-interacting kinase (Homo sapiens) (UniProt O14578)", "assay": "Inhibition of CIT assessed as enzyme activity at 1 uM relative to untreated control", "design": "scale not given: the % may be the effect or the level left"}, "[8]": {"molecular_target": "Interferon-induced, double-stranded RNA-activated protein kinase (Homo sapiens) (UniProt P19525)", "sequence (P19525 whole entry)": "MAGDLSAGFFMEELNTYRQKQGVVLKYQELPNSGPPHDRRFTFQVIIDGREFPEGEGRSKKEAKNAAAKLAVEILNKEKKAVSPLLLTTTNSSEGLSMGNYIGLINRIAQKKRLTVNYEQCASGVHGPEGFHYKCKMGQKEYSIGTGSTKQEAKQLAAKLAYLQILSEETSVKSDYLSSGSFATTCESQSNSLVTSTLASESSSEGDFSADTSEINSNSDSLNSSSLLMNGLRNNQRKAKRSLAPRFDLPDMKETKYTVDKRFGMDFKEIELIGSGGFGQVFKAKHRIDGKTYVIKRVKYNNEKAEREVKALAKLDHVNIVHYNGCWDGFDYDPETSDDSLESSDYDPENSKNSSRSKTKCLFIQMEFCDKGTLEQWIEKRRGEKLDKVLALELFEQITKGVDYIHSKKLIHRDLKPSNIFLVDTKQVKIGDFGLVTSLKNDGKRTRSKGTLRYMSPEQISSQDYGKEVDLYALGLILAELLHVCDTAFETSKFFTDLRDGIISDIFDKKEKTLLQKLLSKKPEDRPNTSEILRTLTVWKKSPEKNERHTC", "assay": "Inhibition of PRKR assessed as enzyme activity at 1 uM relative to untreated control", "design": "scale not given: the % may be the effect or the level left"}, "[9]": {"molecular_target": "Receptor-interacting serine/threonine-protein kinase 1 (Homo sapiens) (UniProt Q13546)", "assay": "Inhibition of RIPK1 assessed as enzyme activity at 1 uM relative to untreated control", "design": "scale not given: the % may be the effect or the level left"}, "[10]": {"molecular_target": "Ribosomal protein S6 kinase alpha-5 (Homo sapiens) (UniProt O75582)", "assay": "Inhibition of RPS6KA5 kinase domain 1 assessed as enzyme activity at 1 uM relative to untreated control", "design": "scale not given: the % may be the effect or the level left"}, "[11]": {"molecular_target": "Myosin light chain kinase family member 4 (Homo sapiens) (UniProt Q86YV6)", "assay": "Inhibition of SgK085 assessed as enzyme activity at 1 uM relative to untreated control", "design": "scale not given: the % may be the effect or the level left"}, "[12]": {"molecular_target": "Ephrin type-B receptor 4 (Homo sapiens) (UniProt P54760)", "assay": "Inhibition of EPHB4 assessed as enzyme activity at 1 uM relative to untreated control", "design": "scale not given: the % may be the effect or the level left"}, "[13]": {"molecular_target": "Tyrosine-protein kinase Fer (Homo sapiens) (UniProt P16591)", "sequence (P16591 whole entry, looked up)": "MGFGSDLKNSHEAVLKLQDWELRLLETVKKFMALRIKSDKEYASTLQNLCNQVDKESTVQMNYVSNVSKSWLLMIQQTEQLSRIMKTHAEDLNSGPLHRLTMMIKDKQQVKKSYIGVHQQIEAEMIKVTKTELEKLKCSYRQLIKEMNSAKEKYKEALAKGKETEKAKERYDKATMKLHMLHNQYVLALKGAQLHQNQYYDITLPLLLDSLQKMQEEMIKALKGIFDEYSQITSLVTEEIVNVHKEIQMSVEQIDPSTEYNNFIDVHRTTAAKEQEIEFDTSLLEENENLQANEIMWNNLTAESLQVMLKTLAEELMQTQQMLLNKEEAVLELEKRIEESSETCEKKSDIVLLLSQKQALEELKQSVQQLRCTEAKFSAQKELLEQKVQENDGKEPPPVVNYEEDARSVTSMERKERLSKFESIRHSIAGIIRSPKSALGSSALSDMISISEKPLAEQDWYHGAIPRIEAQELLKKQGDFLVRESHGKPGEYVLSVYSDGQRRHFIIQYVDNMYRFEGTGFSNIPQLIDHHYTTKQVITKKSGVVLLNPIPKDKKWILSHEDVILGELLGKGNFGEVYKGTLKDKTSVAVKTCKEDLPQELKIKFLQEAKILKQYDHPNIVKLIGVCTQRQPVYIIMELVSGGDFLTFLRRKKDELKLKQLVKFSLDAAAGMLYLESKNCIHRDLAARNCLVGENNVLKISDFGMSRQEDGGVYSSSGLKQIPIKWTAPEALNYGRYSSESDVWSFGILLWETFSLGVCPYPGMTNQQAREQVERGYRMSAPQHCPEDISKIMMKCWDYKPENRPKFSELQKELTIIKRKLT", "assay": "Inhibition of FER assessed as enzyme activity at 1 uM relative to untreated control", "design": "scale not given: the % may be the effect or the level left"}, "[14]": {"test_system": "Receptor-type tyrosine-protein kinase FLT3 (Homo sapiens), P36888 [D835H]", "assay": "Inhibition of FLT3 D835H mutant assessed as enzyme activity at 1 uM relative to untreated control", "design": "scale not given: the % may be the effect or the level left"}, "[15]": {"molecular_target": "Tyrosine-protein kinase JAK1 (Homo sapiens) (UniProt P23458)", "assay": "Inhibition of JAK1 kinase domain 2 assessed as enzyme activity at 1 uM relative to untreated control", "design": "scale not given: the % may be the effect or the level left"}, "[16]": {"molecular_target": "Death-associated protein kinase 2 (Homo sapiens) (UniProt Q9UIK4)", "assay": "Inhibition of DAPK2 assessed as enzyme activity at 1 uM relative to untreated control", "design": "scale not given: the % may be the effect or the level left"}, "[17]": {"molecular_target": "Epithelial discoidin domain-containing receptor 1 (Homo sapiens) (UniProt Q08345)", "sequence (Q08345 whole entry, the tested form may be a part)": "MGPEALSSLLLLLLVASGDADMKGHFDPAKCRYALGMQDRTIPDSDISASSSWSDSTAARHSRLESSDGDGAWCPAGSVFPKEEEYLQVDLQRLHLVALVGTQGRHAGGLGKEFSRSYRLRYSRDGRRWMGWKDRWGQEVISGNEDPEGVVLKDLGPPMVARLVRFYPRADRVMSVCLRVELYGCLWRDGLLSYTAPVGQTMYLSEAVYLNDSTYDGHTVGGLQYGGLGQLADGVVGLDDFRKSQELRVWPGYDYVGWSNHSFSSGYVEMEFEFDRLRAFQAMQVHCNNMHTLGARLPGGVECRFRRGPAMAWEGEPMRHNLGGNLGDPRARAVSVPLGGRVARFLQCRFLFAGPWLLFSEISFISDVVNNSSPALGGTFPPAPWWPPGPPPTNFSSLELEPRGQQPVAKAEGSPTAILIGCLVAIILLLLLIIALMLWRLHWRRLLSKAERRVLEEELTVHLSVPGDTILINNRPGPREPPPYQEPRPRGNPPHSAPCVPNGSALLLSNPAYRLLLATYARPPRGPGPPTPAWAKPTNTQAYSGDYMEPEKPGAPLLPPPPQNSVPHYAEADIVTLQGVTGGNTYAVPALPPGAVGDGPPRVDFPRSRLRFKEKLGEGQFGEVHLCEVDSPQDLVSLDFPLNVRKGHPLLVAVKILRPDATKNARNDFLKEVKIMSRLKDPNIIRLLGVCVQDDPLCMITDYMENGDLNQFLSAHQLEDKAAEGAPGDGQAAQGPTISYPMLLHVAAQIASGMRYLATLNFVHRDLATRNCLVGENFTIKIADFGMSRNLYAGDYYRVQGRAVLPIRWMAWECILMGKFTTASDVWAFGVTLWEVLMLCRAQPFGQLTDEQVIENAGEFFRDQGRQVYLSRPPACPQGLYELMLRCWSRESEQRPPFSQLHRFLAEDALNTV", "assay": "Inhibition of DDR1 dyscoidin domain assessed as enzyme activity at 1 uM relative to untreated control", "design": "scale not given: the % may be the effect or the level left"}, "[18]": {"test_system": "Epidermal growth factor receptor (Homo sapiens), P00533 [G719S]", "assay": "Inhibition of EGFR G719S mutant assessed as enzyme activity at 1 uM relative to untreated control", "assay_type": "protein assay", "design": "scale not given: the % may be the effect or the level left"}, "[19]": {"test_system": "Epidermal growth factor receptor (Homo sapiens), P00533 [L861Q]", "assay": "Inhibition of EGFR L861Q mutant assessed as enzyme activity at 1 uM relative to untreated control", "assay_type": "protein assay", "design": "scale not given: the % may be the effect or the level left"}, "[20]": {"molecular_target": "Epidermal growth factor receptor (Homo sapiens) (UniProt P04626+P00533+Q15303+P21860)", "assay": "Inhibition of EGFR S752-I759del mutant assessed as enzyme activity at 1 uM relative to untreated control", "assay_type": "protein assay", "design": "scale not given: the % may be the effect or the level left"}, "[21]": {"molecular_target": "AP2-associated protein kinase 1 (Homo sapiens) (UniProt Q2M2I8)", "assay": "Inhibition of AAK1 assessed as enzyme activity at 1 uM relative to untreated control", "design": "scale not given: the % may be the effect or the level left"}, "[22]": {"molecular_target": "Tyrosine-protein kinase ABL1 (Homo sapiens) (UniProt P00519)", "assay": "Inhibition of ABL1 assessed as enzyme activity at 1 uM relative to untreated control", "design": "scale not given: the % may be the effect or the level left"}, "[23]": {"molecular_target": "Activin receptor type-1-like (Homo sapiens) (UniProt P37023)", "assay": "Inhibition of ACVRL1 assessed as enzyme activity at 1 uM relative to untreated control", "design": "scale not given: the % may be the effect or the level left"}, "[24]": {"molecular_target": "RAC-alpha serine/threonine-protein kinase (Homo sapiens) (UniProt P31749)", "assay": "Inhibition of AKT1 assessed as enzyme activity at 1 uM relative to untreated control", "design": "scale not given: the % may be the effect or the level left"}, "[25]": {"molecular_target": "Platelet-derived growth factor receptor alpha (Homo sapiens) (UniProt P16234)", "assay": "Inhibition of PDGFRA assessed as enzyme activity at 1 uM relative to untreated control", "design": "scale not given: the % may be the effect or the level left"}, "[26]": {"molecular_target": "Platelet-derived growth factor receptor beta (Homo sapiens) (UniProt P09619)", "assay": "Inhibition of PDGFRB assessed as enzyme activity at 1 uM relative to untreated control", "design": "scale not given: the % may be the effect or the level left"}, "[27]": {"molecular_target": "Phosphatidylinositol 4,5-bisphosphate 3-kinase catalytic subunit delta isoform (Homo sapiens) (UniProt O00329)", "assay": "Inhibition of PIK3CD assessed as enzyme activity at 1 uM relative to untreated control", "design": "scale not given: the % may be the effect or the level left"}, "[28]": {"molecular_target": "Phosphatidylinositol 4,5-bisphosphate 3-kinase catalytic subunit gamma isoform (Homo sapiens) (UniProt P48736)", "assay": "Inhibition of PIK3CG assessed as enzyme activity at 1 uM relative to untreated control", "design": "scale not given: the % may be the effect or the level left"}, "[29]": {"molecular_target": "Serine/threonine-protein kinase pim-1 (Homo sapiens) (UniProt P11309)", "assay": "Inhibition of PIM1 assessed as enzyme activity at 1 uM relative to untreated control", "design": "scale not given: the % may be the effect or the level left"}, "[30]": {"molecular_target": "Membrane-associated tyrosine- and threonine-specific cdc2-inhibitory kinase (Homo sapiens) (UniProt Q99640)", "assay": "Inhibition of PKMYT1 assessed as enzyme activity at 1 uM relative to untreated control", "design": "scale not given: the % may be the effect or the level left"}, "[31]": {"molecular_target": "Serine/threonine-protein kinase PLK1 (Homo sapiens) (UniProt P53350)", "sequence (P53350 whole entry)": "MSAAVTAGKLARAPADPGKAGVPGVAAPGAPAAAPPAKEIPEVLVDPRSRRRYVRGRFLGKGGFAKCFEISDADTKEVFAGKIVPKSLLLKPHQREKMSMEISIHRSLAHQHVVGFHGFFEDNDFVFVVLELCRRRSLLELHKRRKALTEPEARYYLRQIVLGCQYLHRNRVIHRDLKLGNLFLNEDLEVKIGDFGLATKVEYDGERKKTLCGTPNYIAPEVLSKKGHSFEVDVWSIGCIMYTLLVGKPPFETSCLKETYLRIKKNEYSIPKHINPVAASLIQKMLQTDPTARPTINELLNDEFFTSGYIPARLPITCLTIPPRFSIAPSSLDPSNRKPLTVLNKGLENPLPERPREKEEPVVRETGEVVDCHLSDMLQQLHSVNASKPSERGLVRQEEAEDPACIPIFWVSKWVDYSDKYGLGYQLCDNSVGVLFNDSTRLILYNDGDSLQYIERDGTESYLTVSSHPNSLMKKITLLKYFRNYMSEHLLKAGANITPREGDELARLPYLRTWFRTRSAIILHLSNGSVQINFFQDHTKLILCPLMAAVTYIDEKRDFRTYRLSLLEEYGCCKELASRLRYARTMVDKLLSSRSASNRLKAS", "assay": "Inhibition of PLK1 assessed as enzyme activity at 1 uM relative to untreated control", "design": "scale not given: the % may be the effect or the level left"}, "[32]": {"molecular_target": "Protein kinase C eta type (Homo sapiens) (UniProt P24723)", "assay": "Inhibition of PRKCH assessed as enzyme activity at 1 uM relative to untreated control", "design": "scale not given: the % may be the effect or the level left"}, "[33]": {"molecular_target": "5'-AMP-activated protein kinase catalytic subunit alpha-2 (Homo sapiens) (UniProt P54646)", "assay": "Inhibition of AMPKalpha2 assessed as enzyme activity at 1 uM relative to untreated control", "design": "scale not given: the % may be the effect or the level left"}, "[34]": {"molecular_target": "Serine/threonine-protein kinase TAO3 (Homo sapiens) (UniProt Q9H2K8)", "assay": "Inhibition of TAOK3 assessed as enzyme activity at 1 uM relative to untreated control", "design": "scale not given: the % may be the effect or the level left"}, "[35]": {"molecular_target": "TGF-beta receptor type-1 (Homo sapiens) (UniProt P36897)", "sequence (P36897 whole entry)": "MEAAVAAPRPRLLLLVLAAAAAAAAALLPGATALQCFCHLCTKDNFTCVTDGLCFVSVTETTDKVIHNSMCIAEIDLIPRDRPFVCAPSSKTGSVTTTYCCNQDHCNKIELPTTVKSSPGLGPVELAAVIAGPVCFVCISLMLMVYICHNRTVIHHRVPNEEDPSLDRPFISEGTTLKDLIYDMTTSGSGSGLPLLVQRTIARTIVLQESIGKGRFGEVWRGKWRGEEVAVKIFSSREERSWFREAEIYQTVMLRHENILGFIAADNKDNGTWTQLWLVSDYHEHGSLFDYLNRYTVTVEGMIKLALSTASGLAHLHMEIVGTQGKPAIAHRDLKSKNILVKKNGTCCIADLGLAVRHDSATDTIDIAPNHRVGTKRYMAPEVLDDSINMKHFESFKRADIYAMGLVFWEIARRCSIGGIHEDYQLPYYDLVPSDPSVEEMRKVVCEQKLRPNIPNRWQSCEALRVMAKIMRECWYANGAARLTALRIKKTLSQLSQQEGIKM", "assay": "Inhibition of TGFBR1 assessed as enzyme activity at 1 uM relative to untreated control", "design": "scale not given: the % may be the effect or the level left"}, "[36]": {"molecular_target": "Tyrosine-protein kinase TXK (Homo sapiens) (UniProt P42681)", "assay": "Inhibition of TXK assessed as enzyme activity at 1 uM relative to untreated control", "design": "scale not given: the % may be the effect or the level left"}, "[37]": {"molecular_target": "Serine/threonine-protein kinase 32C (Homo sapiens) (UniProt Q86UX6)", "assay": "Inhibition of YANK3 assessed as enzyme activity at 1 uM relative to untreated control", "design": "scale not given: the % may be the effect or the level left"}},
  "data": [
    {"smiles": "Cc1ccc2c(Nc3ccc(Cl)cc3)nccc2c1Nc1ncccc1-c1ncnc2[nH]cnc12.Cl.Cl.Cl", "values": [
      {"measurement": "IC50", "setting": "[1]", "value": 83, "unit": "nM"},
      {"measurement": "Activity", "setting": "[2]", "value": 100, "unit": "%"},
      {"measurement": "Activity", "setting": "[3]", "value": 36, "unit": "%"},
      {"measurement": "Activity", "setting": "[4]", "value": 100, "unit": "%"},
      {"measurement": "Activity", "setting": "[5]", "value": 100, "unit": "%"},
      {"measurement": "Activity", "setting": "[6]", "value": 100, "unit": "%"},
      {"measurement": "Activity", "setting": "[7]", "value": 64, "unit": "%"},
      {"measurement": "Activity", "setting": "[8]", "value": 97, "unit": "%"},
      {"measurement": "Activity", "setting": "[9]", "value": 92, "unit": "%"},
      {"measurement": "Activity", "setting": "[10]", "value": 90, "unit": "%"},
      {"measurement": "Activity", "setting": "[11]", "value": 100, "unit": "%"},
      {"measurement": "Activity", "setting": "[12]", "value": 6.5, "unit": "%"},
      {"measurement": "Activity", "setting": "[13]", "value": 78, "unit": "%"},
      {"measurement": "Activity", "setting": "[14]", "value": 99, "unit": "%"},
      {"measurement": "Activity", "setting": "[15]", "value": 47, "unit": "%"},
      {"measurement": "Activity", "setting": "[16]", "value": 100, "unit": "%"},
      {"measurement": "Activity", "setting": "[17]", "value": 0.1, "unit": "%"},
      {"measurement": "Activity", "setting": "[18]", "value": 92, "unit": "%"},
      {"measurement": "Activity", "setting": "[19]", "value": 86, "unit": "%"},
      {"measurement": "Activity", "setting": "[20]", "value": 90, "unit": "%"},
      {"measurement": "Activity", "setting": "[21]", "value": 92, "unit": "%"},
      {"measurement": "Activity", "setting": "[22]", "value": 51, "unit": "%"},
      {"measurement": "Activity", "setting": "[23]", "value": 92, "unit": "%"},
      {"measurement": "Activity", "setting": "[24]", "value": 100, "unit": "%"},
      {"measurement": "Activity", "setting": "[25]", "value": 88, "unit": "%"},
      {"measurement": "Activity", "setting": "[26]", "value": 78, "unit": "%"},
      {"measurement": "Activity", "setting": "[27]", "value": 100, "unit": "%"},
      {"measurement": "Activity", "setting": "[28]", "value": 100, "unit": "%"},
      {"measurement": "Activity", "setting": "[29]", "value": 93, "unit": "%"},
      {"measurement": "Activity", "setting": "[30]", "value": 85, "unit": "%"},
      {"measurement": "Activity", "setting": "[31]", "value": 100, "unit": "%"},
      {"measurement": "Activity", "setting": "[32]", "value": 100, "unit": "%"},
      {"measurement": "Activity", "setting": "[33]", "value": 96, "unit": "%"},
      {"measurement": "Activity", "setting": "[34]", "value": 94, "unit": "%"},
      {"measurement": "Activity", "setting": "[35]", "value": 89, "unit": "%"},
      {"measurement": "Activity", "setting": "[36]", "value": 100, "unit": "%"},
      {"measurement": "Activity", "setting": "[37]", "value": 84, "unit": "%"}
    ]}
  ]
}
